Square brackets hold non-standard residues; d marks the D form. Peptide text beside a SMILES is read from it. * marks the point of attachment. NHiPr = CC(C)N*; OiPr = CC(C)O*

The text below walks through data of US4411925A, “Branched amides of L-aspartyl-d-amino acid dipeptides” (Pfizer Inc., priority 1980, dated 1983).

Experiment [1] can be described thus: Sweetness potency: gustatory sweetness compared with sucrose standard by expert taste panel. Type of experiment: in vivo. The note with it: aqueous solutions compared with 7-9% sucrose. As to the method:
The sweetness potency of the instant compounds was determined by comparison of their gustatory sweetnesses with sucrose. Aqueous solutions of the compound of formula (I) diluted to a suitable range of concentrations were compared with a sucrose standard by an expert taste panel. Comparisons were generally made with aqueous sucrose solutions of 7-9%, i.e., 7-9 g. per 100 ml. Higher sucrose concentrations have a distinctive mouthfeel which may influence results and lower sucrose concentration are not indicative of normal use situations. […] All of the sweetness potency values stated herein for the compounds of the invention were determined by this method.

The conditions of experiment [2]: prior art values (U.S. 3,492,131; Mazur et al.; Sukehiro et al.); cited from earlier work.
The conditions of experiment [3]: factor used to calculate the theoretical sweetness of the blends; cited from earlier work.

For `C[C@@H](NC(=O)[C@@H](N)CC(=O)O)C(=O)NC(C1CC1)C(C)(C)C` (mixture of isomers) [Example 6, L-Aspartyl-D-alanine N-(dl-t-butylcyclopropylcarbinyl)amide], the Sweetness potency in experiment [1] is given as 1200 x sucrose.
`C[C@@H](NC(=O)[C@@H](N)CC(=O)O)C(=O)NC1C(=O)OCC1(C)C` (mixture of isomers) [Example 27, L-Aspartyl-D-alanine N-(DL-2-amino-3,3-dimethyl-4-hydroxybutanoic acid lactone)amide]: the Sweetness potency in experiment [1] stood at 100 x sucrose.
Regarding `C[C@@H](NC(=O)[C@@H](N)CC(=O)O)C(=O)NC1C(C)(C)CSC1(C)C` (mixture of isomers) [L-Aspartyl-D-alanine N-(2,2,4,4-tetramethyltetrahydrothiophene-3-yl)amide], the Sweetness potency in experiment [1] is reported as 800 x sucrose.
`CC1CCCC(C)C1NC(=O)[C@@H](C)NC(=O)[C@@H](N)CC(=O)O` (relative stereo) [Example 3] displayed a Sweetness potency in experiment [1] of 600 x sucrose.
For the molecule `CC1CCCCC1NC(=O)[C@@H](C)NC(=O)[C@@H](N)CC(=O)O` (stereo partly drawn) [Example 4, L-Aspartyl-D-alanine N-(2-methycyclohexyl)amide], the Sweetness potency in experiment [1] was 250 x sucrose.
Still for that read-out and setting: as for `C[C@@H](NC(=O)[C@@H](N)CC(=O)O)C(=O)NC1C(C)(C)CCC1(C)C` [Example 7, L-Aspartyl-D-alanine N-(2,2,5,5-tetramethylcyclopent-l-yl)amide], the figure is 800 x sucrose.
The same measure, in the same setting: as for `CC1CSCC(C)C1NC(=O)[C@@H](C)NC(=O)[C@@H](N)CC(=O)O` (stereo partly drawn) [Example 12, L-Aspartyl-D-alanine-N-(3,5-dimethyltetrahydrothiopyran-4-yl)amide], the figure is 200 x sucrose.
For the molecule `C[C@@H](NC(=O)[C@@H](N)CC(=O)O)C(=O)NC1C(C)(C)SC1(C)C` [Example 16, L-Aspartyl-D-alanine N-(2,2,4,4-tetramethylthietan-3-yl)amide], the Sweetness potency in experiment [1] came to 2000 x sucrose.
`C[C@@H](NC(=O)[C@@H](N)CC(=O)O)C(=O)NC1C(C)(C)S(=O)(=O)C1(C)C` [Example 17, L-Aspartyl-D-alanine N-(2,2,4,4-tetramethyl-1,1-dioxothietan-3-yl)amide] registered a Sweetness potency in experiment [1] of 1000 x sucrose.
Same read-out and setting: as for `CSC(C)(C)C(NC(=O)[C@@H](C)NC(=O)[C@@H](N)CC(=O)O)C(C)C` (stereo partly drawn) [Example 18, L-Aspartyl-D-alanine N-(2-methylthio-2,4-dimethylpentan-3-yl)amide], the figure is 150 x sucrose; as for `CC[C@@H](NC(=O)[C@@H](N)CC(=O)O)C(=O)NC(C1CC1)C1CC1` [Example 20, L-Aspartyl-D-2-aminobutyric acid N-(dicyclopropylcarbinyl)amide], 500 x sucrose; as for `CC[C@@H](NC(=O)[C@@H](N)CC(=O)O)C(=O)NC1C(C)(C)S(=O)(=O)C1(C)C` [Example 21, L-Aspartyl-D-2-aminobutyric acid N-(2,2,4,4-tetramethyl-1,1-dioxothietan-3-yl)amide], 200 x sucrose.
Same read-out and setting: as for `CC[C@@H](NC(=O)[C@@H](N)CC(=O)O)C(=O)NC(C(C)C)C(C)C` [Example 22, L-Aspartyl-D-2-aminobutyric acid N-(2,4-dimethyl-3-pentyl)amide], the figure is 100 x sucrose; as for `CC(C)[C@@H](NC(=O)[C@@H](N)CC(=O)O)C(=O)NC(C1CC1)C1CC1` [Example 23, L-Aspartyl-D-valine N-(dicyclopropylcarbinyl)amide], 110 x sucrose; as for `CC(C)NC(=O)[C@H](NC(=O)[C@@H](N)CC(=O)O)C(C)C` [Example 24, L-Aspartyl-D-valine N-isopropylamide] (H-Asp-[dV]-NHiPr), 1-2 x sucrose.
`C[C@@H](NC(=O)[C@@H](N)CC(=O)O)C(=O)NC(C(C)(C)C)C(C)(C)C` [Example 25, L-Aspartyl-D-alanine N-(2,2,4,4-tetramethyl-3-pentyl)amide] came in with a Sweetness potency in experiment [1] of 450 x sucrose.
Molecule `CC(C)C(NC(=O)[C@@H](C)NC(=O)[C@@H](N)CC(=O)O)C(C)(C)O` (stereo partly drawn) [Example 26, L-Aspartyl-D-alanine N-(2-hydroxy-2,4-dimethyl-3-pentyl)amide] returned a Sweetness potency in experiment [1] of 125 x sucrose.
With `CC(C)OC(=O)[C@@H](C)NC(=O)[C@@H](N)CC(=O)O` [L-aspartyl-D-alanine isopropyl ester] (H-Asp-[dA]-OiPr), the “sweetness relative to sucrose” value in experiment [2] is “up to 125 times sucrose”.
In the case of `C[C@@H](NC(=O)[C@@H](N)CC(=O)O)C(=O)NC(C1CC1)C1CC1` [[I, R^a =CH3, R=CH(Δ)2], L-Aspartyl-D-alanine N-(dicyclopropylcarbinyl)amide], the Sweetness potency in experiment [1] stood at 1200 x sucrose.
With `O=C1NS(=O)(=O)c2ccccc21.[Na]` [sodium saccharin], in experiment [3], the Sweetness potency factor was 300 x sucrose.
In turn, “L-Aspartyl-D-alanine N-(2,2,4,4-tetramethyltetrahydrothiophene-3-yl)amide [Example 14]” came in with a Sweetness potency in experiment [1] of 500 x sucrose.
